From ChEMBL document CHEMBL2057096, “Discovery of novel 1,2,4-thiadiazole derivatives as potent, orally active agonists of sphingosine 1-phosphate receptor subtype 1 (S1P(1))” (J Med Chem, 2012)
Values after ≈ are worked out from the molar mass of the structure shown. Active and inactive are the calls of the source. The rule behind the calls is not given here.

Legend:
[1] = target: Sphingosine 1-phosphate receptor 1 (Homo sapiens, UniProt P21453); experiment: Agonist activity against S1P1 receptor by cell based FRET assay; type: functional
[2] = Percentage unbound in human plasma; type: ADME, cell-free
[3] = target: Sphingosine 1-phosphate receptor 3 (Homo sapiens, UniProt Q99500); experiment: Agonist activity against S1P3 receptor by cell based FRET assay; type: functional
Homo sapiens = species: Homo sapiens; experiment: Selectivity ratio of EC50 for S1P3 receptor to EC50 for S1P1 receptor
Mus musculus [4] = experiment: Antiinflammatory activity in C57BL/6 mouse EAE model assessed as decrease in clinical symptoms at 1 mg/kg, po administered qd after 10 days post immunization; type: functional, organism-based; design: dose 1 mg/kg
Cytochrome P450 2C9 = Cytochrome P450 2C9 (Homo sapiens, UniProt P11712); experiment: Inhibition of CYP2C9; type: ADME
Mus musculus [5] = experiment: Decrease in lymphocyte count in mouse acute lymphopenia model at 1 mg/kg, po after 24 hrs by flow cytometry relative to base line; type: functional; design: scale not given: the % may be the effect or the level left
[6] = Ratio of drug level in brain to blood in C57BL/6 mouse at 2 mg/kg, ip after 1 hr; type: ADME, organism-based; design: dose 2 mg/kg, route intraperitoneal
[7] = Oral bioavailability in mouse; type: ADME, organism-based; conditions: in vivo
[8] = Solubility of the compound; type: physicochemical
[9] = AUC (0 to 24 hrs) in mouse; type: ADME, organism-based; design: time < 24 hr; conditions: plasma
[10] = Ratio of drug level in brain to blood in C57BL/6 mouse at 2 mg/kg, ip after 4 hrs; type: ADME, organism-based; design: dose 2 mg/kg, route intraperitoneal
Mus musculus [11] = experiment: Decrease in lymphocyte count in mouse acute lymphopenia model at 1 mg/kg, po after 4 hrs by flow cytometry relative to base line; type: functional; design: scale not given: the % may be the effect or the level left
[12] = Permeability of the compound; type: ADME; conditions: not told; read-out: permeability
[13] = Half life in mouse; type: ADME, organism-based; conditions: in vivo
[14] = Percentage unbound in rat plasma; type: ADME, cell-free

Sequence of Sphingosine 1-phosphate receptor 1 (P21453 whole entry): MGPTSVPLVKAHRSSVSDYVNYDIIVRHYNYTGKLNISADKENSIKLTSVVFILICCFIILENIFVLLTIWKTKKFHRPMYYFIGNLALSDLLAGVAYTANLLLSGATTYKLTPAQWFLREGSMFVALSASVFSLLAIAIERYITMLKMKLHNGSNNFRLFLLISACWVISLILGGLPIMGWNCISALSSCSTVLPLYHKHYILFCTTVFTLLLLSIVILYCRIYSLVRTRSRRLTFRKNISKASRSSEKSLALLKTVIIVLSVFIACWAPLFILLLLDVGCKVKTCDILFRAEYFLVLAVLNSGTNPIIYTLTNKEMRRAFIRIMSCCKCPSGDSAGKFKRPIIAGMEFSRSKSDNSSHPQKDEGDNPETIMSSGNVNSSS
Sequence of Cytochrome P450 2C9 (P11712 whole entry): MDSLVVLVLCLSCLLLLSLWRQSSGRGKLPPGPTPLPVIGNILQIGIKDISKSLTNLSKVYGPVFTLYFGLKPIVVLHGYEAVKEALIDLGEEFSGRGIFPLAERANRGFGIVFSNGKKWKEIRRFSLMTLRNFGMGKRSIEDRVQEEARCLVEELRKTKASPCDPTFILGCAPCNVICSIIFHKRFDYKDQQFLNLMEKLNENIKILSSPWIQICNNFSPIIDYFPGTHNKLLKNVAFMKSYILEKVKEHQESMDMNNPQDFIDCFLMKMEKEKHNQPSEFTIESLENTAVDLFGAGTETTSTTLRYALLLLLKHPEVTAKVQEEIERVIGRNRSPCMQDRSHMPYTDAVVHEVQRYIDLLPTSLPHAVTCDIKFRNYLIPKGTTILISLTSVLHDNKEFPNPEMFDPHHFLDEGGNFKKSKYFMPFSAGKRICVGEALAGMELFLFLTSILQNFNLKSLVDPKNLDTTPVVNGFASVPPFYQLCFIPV
Sequence of Sphingosine 1-phosphate receptor 3 (Q99500 whole entry): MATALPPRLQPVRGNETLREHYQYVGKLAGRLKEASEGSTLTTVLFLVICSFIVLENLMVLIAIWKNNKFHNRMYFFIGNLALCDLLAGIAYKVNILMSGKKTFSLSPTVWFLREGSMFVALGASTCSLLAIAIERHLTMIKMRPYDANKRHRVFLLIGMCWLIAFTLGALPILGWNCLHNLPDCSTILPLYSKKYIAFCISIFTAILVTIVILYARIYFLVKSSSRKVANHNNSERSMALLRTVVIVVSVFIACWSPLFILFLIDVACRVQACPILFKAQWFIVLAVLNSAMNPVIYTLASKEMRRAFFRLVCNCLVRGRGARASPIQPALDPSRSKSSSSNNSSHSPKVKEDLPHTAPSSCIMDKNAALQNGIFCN

CCc1c(CCCC(=O)O)cccc1-c1ccc(-c2ccc(OC(C)C)c(C#N)c2)nn1
EC50 [1]: 631 nM

CCc1c(CCCC(=O)O)cccc1-c1ccc(-c2ccc(OC(C)C)c(C#N)c2)cn1
EC50 [1]: 31.6 nM

CCc1c(CCCC(=O)O)cccc1-c1nccc(-c2ccc(OC(C)C)c(C#N)c2)n1
EC50 [1]: > 3160 nM

CCc1c(CCCC(=O)O)cccc1-c1nsc(-c2ccc(OC(C)C)c(Cl)c2)n1
EC50 [1]: 3.98 nM | fraction unbound [2]: 0.0015

CCc1c(CN2CC(C(=O)O)C2)cccc1-c1nsc(-c2ccc(OC(C)C)c(Cl)c2)n1
EC50 [1]: 3.98 nM | EC50 [3]: > 3160 nM | fraction unbound [2]: 0.0096 | Ratio EC50 (Homo sapiens): > 1000

CCc1c(CCCC(=O)O)cccc1-c1nsc(-c2ccc(-c3ccccc3)c(C(F)(F)F)c2)n1
EC50 [1]: 5.01 nM

CCc1c(CCCC(=O)O)cncc1-c1nsc(-c2ccc(OC(C)C)c(Cl)c2)n1
EC50 [1]: 251 nM | fraction unbound [2]: 0.0019

CCc1c(CCN2CC(C(=O)O)C2)cccc1-c1nsc(-c2ccc(OC(C)C)c(C(F)(F)F)c2)n1
EC50 [1]: 0.251 nM | EC50 [3]: 3160 nM | fraction unbound [2]: 0.0025 | Ratio EC50 (Homo sapiens): > 1000

CCc1c(CCCC(=O)O)cccc1-c1cc(-c2ccc(OC(C)C)c(C#N)c2)ncn1
EC50 [1]: > 3160 nM

CCc1c(CCCC(=O)O)cccc1-c1nsc(-c2cnc(OC(C)C)c(C(F)(F)F)c2)n1
EC50 [1]: 5.01 nM | fraction unbound [2]: 0.00031

CCc1c(CN2CC(C(=O)O)C2)cccc1-c1nsc(-c2ccc(OC(C)C)c(C(F)(F)F)c2)n1
EC50 [1]: 0.251 nM | EC50 [3]: 2510 nM | fraction unbound [2]: 0.0026 | Ratio EC50 (Homo sapiens): > 1000

CCc1c(CCCC(=O)O)cccc1-c1ccn(-c2ccc(OC(C)C)c(C#N)c2)n1
EC50 [1]: 2510 nM

CCc1c(CCCC(=O)O)cncc1-c1nsc(-c2ccc(CC(C)C)c(C#N)c2)n1
EC50 [1]: 398 nM | fraction unbound [2]: 0.0014

CCCCCCCCc1ccc(CCC(N)(CO)CO)cc1
Activity (Mus musculus [4]): Active

CCc1c(CCCC(=O)O)cccc1-c1cnn(-c2ccc(OC(C)C)c(C#N)c2)c1
EC50 [1]: 631 nM

CCc1c(CCN2CC(C(=O)O)C2)cccc1-c1nsc(-c2ccc(CC(C)C)c(C#N)c2)n1
EC50 [1]: 0.794 nM | EC50 [3]: 2510 nM | fraction unbound [2]: 0.0071 | Ratio EC50 (Homo sapiens): > 1000

CCc1c(CN2CC(C(=O)O)C2)cccc1-c1nsc(-c2ccc(CC(C)C)c(C#N)c2)n1
EC50 [1]: 7.94 nM | EC50 [3]: > 3160 nM | fraction unbound [2]: 0.0128 | Ratio EC50 (Homo sapiens): > 1000

CCc1c(CCN2CCC(C(=O)O)CC2)cccc1-c1nsc(-c2ccc(OC(C)C)c(C(F)(F)F)c2)n1
EC50 [1]: 0.1 nM | EC50 [3]: 2510 nM | fraction unbound [2]: 0.0017 | Ratio EC50 (Homo sapiens): > 1000

CCc1c(CCCC(=O)O)cccc1-c1nsc(-c2ccc(N3CCCCC3)c(C(F)(F)F)c2)n1
EC50 [1]: 2 nM | fraction unbound [2]: 1e-05

CCc1c(CCCC(=O)O)cccc1-c1nsc(-c2ccc(OC(C)C)c(C#N)c2)n1
IC50 (Cytochrome P450 2C9): 5010 nM | Activity (Mus musculus [5]): 87.9% | Kp at 1 h [6]: 0.36 | bioavailability [7]: 87% | EC50 [1]: 2.51 nM | solubility [8]: 160 µg/mL (≈ 367 µM) | EC50 [3]: > 10000 nM | Activity (Mus musculus [4]): Active | AUC(0-t) at 24 h [9]: 2600 ng·h/mL | Kp at 4 h [10]: 0.52 | Activity (Mus musculus [11]): 22.7% | fraction unbound [2]: 0.0021 | Papp [12]: 32 ×10⁻⁶ cm/s | half-life [13]: 1.5 h

CCc1c(CCCC(=O)O)cccc1-c1nnc(-c2ccc(OC(C)C)c(C#N)c2)o1
IC50 (Cytochrome P450 2C9): 7940 nM | Kp at 1 h [6]: 0.11 | EC50 [1]: 3.16 nM | solubility [8]: 187 µg/mL (≈ 446 µM) | fraction unbound [14]: 0.0021 | EC50 [3]: > 10000 nM | Kp at 4 h [10]: 0.09 | Papp [12]: 24 ×10⁻⁶ cm/s

CCc1c(CCN2CC(O)C2)cccc1-c1nsc(-c2ccc(CC(C)C)c(C#N)c2)n1
EC50 [1]: 200 nM | EC50 [3]: > 3160 nM | fraction unbound [2]: 0.00091

CCc1c(CCCC(=O)O)cccc1-c1nsc(-c2ccc(N3CCOCC3)c(C(F)(F)F)c2)n1
EC50 [1]: 126 nM | fraction unbound [14]: 0.0006

CCc1c(CCCC(=O)O)cccc1-c1nsc(-c2ccc(N3CCN(C)CC3)c(C(F)(F)F)c2)n1
EC50 [1]: > 3160 nM | fraction unbound [14]: 0.0032

CCc1c(CCCC(=O)O)cncc1-c1nsc(-c2ccc(OC(C)C)c(C(F)(F)F)c2)n1
EC50 [1]: 25.1 nM | fraction unbound [2]: 0.0012

CCc1c(CCN2CC(C(=O)O)C2)cccc1-c1nsc(-c2ccc(OC(C)C)c(Cl)c2)n1
EC50 [1]: 0.251 nM | EC50 [3]: > 3160 nM | fraction unbound [2]: 0.0067 | Ratio EC50 (Homo sapiens): > 1000

CCc1c(-c2nsc(-c3ccc(CC(C)C)c(C#N)c3)n2)ccnc1CCCC(=O)O
EC50 [1]: 158 nM | fraction unbound [2]: 0.0019

CCc1c(CCCC(=O)O)cccc1-c1nsc(-c2ccc(OC(C)C)c(C(F)(F)F)c2)n1
EC50 [1]: 2 nM | fraction unbound [2]: 0.00014

CCc1c(CCCC(=O)O)cccc1-c1cc(-c2ccc(OC(C)C)c(C#N)c2)no1
EC50 [1]: 5.01 nM

CCc1c(CN(C)CC(=O)O)cccc1-c1nsc(-c2ccc(OC(C)C)c(C(F)(F)F)c2)n1
EC50 [1]: 10 nM | EC50 [3]: > 10000 nM | fraction unbound [2]: 0.0049 | Ratio EC50 (Homo sapiens): > 1000

CCc1c(CCCC(=O)O)cccc1-c1nc(-c2ccc(OC(C)C)c(C#N)c2)ns1
EC50 [1]: 1.26 nM

CCc1c(CCCC(=O)O)cccc1-c1ccc(-c2ccc(OC(C)C)c(C#N)c2)cc1
IC50 (Cytochrome P450 2C9): 3980 nM | Kp at 1 h [6]: 0.93 | EC50 [1]: 1.58 nM | solubility [8]: 154 µg/mL (≈ 360 µM) | fraction unbound [14]: 0.0001 | EC50 [3]: > 10000 nM | Kp at 4 h [10]: 0.95 | Papp [12]: 31 ×10⁻⁶ cm/s

CCc1c(CN(C)C(C)(C)C(=O)O)cccc1-c1nsc(-c2ccc(OC(C)C)c(C(F)(F)F)c2)n1
EC50 [1]: 100 nM | EC50 [3]: > 10000 nM | fraction unbound [2]: 4e-05 | Ratio EC50 (Homo sapiens): > 1000

CCc1c(CCN2CCCCC2)cccc1-c1nsc(-c2ccc(CC(C)C)c(C#N)c2)n1
EC50 [1]: 1580 nM | EC50 [3]: > 10000 nM | fraction unbound [2]: 0.00017

CCc1c(CCCC(=O)O)cccc1-c1ccc(-c2ccc(OC(C)C)c(C#N)c2)s1
IC50 (Cytochrome P450 2C9): 1580 nM | Kp at 1 h [6]: 1 | EC50 [1]: 3.98 nM | solubility [8]: 115 µg/mL (≈ 265 µM) | fraction unbound [14]: 0.0002 | EC50 [3]: > 10000 nM | Kp at 4 h [10]: 1.5 | Papp [12]: 30 ×10⁻⁶ cm/s

CCc1c(CN2CCC(C(=O)O)CC2)cccc1-c1nsc(-c2ccc(OC(C)C)c(C(F)(F)F)c2)n1
EC50 [1]: 15.8 nM | fraction unbound [14]: 0.0038 | EC50 [3]: > 10000 nM | Ratio EC50 (Homo sapiens): > 1000

CCc1c(CCCC(=O)O)cccc1-c1cccc(-c2ccc(OC(C)C)c(C#N)c2)n1
EC50 [1]: > 3160 nM

CCc1c(CCCC(=O)O)cccc1-c1cc(-c2ccc(OC(C)C)c(C#N)c2)n[nH]1
EC50 [1]: > 10000 nM

CCc1c(CCCC(=O)O)cccc1-c1ccc(-c2ccc(OC(C)C)c(C#N)c2)nc1
EC50 [1]: 31.6 nM

CCc1c(CCN(C)CC(=O)O)cccc1-c1nsc(-c2ccc(OC(C)C)c(C(F)(F)F)c2)n1
EC50 [1]: 0.02 nM | EC50 [3]: > 3160 nM | fraction unbound [2]: 0.0021 | Ratio EC50 (Homo sapiens): > 1000

CCc1c(CCCC(=O)O)cccc1-c1nsc(-c2ccc(CC(C)C)c(C#N)c2)n1
EC50 [1]: 1.26 nM | fraction unbound [2]: 0.0003

CCc1c(CCCC(=O)O)cccc1-c1ncc(-c2ccc(OC(C)C)c(C#N)c2)cn1
EC50 [1]: 25.1 nM

CCc1c(CCCC(=O)O)cccc1-c1ccnc(-c2ccc(OC(C)C)c(C#N)c2)n1
EC50 [1]: > 3160 nM

CCc1c(CCNCC(=O)O)cccc1-c1nsc(-c2ccc(OC(C)C)c(C(F)(F)F)c2)n1
EC50 [1]: 0.0158 nM | EC50 [3]: > 3160 nM | fraction unbound [2]: 0.0013 | Ratio EC50 (Homo sapiens): > 1000

CCc1c(CCCC(=O)O)cccc1-c1cnc(-c2ccc(OC(C)C)c(C#N)c2)[nH]1
EC50 [1]: > 10000 nM
